Measurements published in the supplement of paper PMC10307832.

Assays:
Assay in all cases: relative viability (nuclei count vs DMSO), 5 days (fraction); higher = more cells survive
ChaGo-K-1 = tested on: ChaGo-K-1
In short: (§1)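 A single step with final 0.05% Triton X-100, 1% formaldehyde and 1 ug/ml Hoechst fixed the cells and stained nuclei 5 days after treatment. Lung cancer cell lines in 1536-well plates had been treated by pin tool the day after seeding with one drug alone or a fixed anchor-drug dose plus five library-drug doses (not always all listed) in √10 steps, and nuclei were counted on 4× images. Relative viability is the ratio of nuclei in treated wells to nuclei in vehicle wells, taken as the median of duplicate plates.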

EKVX = tested on: EKVX
In short: as §1

EMC-BAC-2 = tested on: EMC-BAC-2
In short: as §1

EPLC-272H = tested on: EPLC-272H
In short: as §1

HCC-78 = tested on: HCC-78
In short: as §1

HCC-827 = tested on: HCC-827
In short: as §1

LCLC-103H = tested on: LCLC-103H
In short: as §1

LK-2 = tested on: LK-2
In short: as §1

LU99A = tested on: LU99A
In short: as §1

LXF-289 = tested on: LXF-289
In short: as §1

NCI-H1563 = tested on: NCI-H1563
In short: as §1

NCI-H1666 = tested on: NCI-H1666
In short: as §1

NCI-H1975 = tested on: NCI-H1975
In short: as §1

NCI-H2126 = tested on: NCI-H2126
In short: as §1

NCI-H2342 = tested on: NCI-H2342
In short: as §1

NCI-H23 = tested on: NCI-H23
In short: as §1

NCI-H2405 = tested on: NCI-H2405
In short: as §1

NCI-H322M = tested on: NCI-H322M
In short: as §1

PC-14 = tested on: PC-14
In short: as §1

RERF-LC-KJ = tested on: RERF-LC-KJ
In short: as §1

SK-LU-1 = tested on: SK-LU-1
In short: as §1

SW 1573 = tested on: SW 1573
In short: as §1

SW 900 = tested on: SW 900
In short: as §1

In the case of `COc1nc(C)cnc1NS(=O)(=O)c1cccnc1-c1ccc(-c2nnco2)cc1` [Zibotentan] + COc1cccc2cc(-c3nc([C@H]4CC[C@H](C(=O)O)CC4)n4ncnc(N)c34)[nH]c12 [OSI-027] (partner 0.5 µM), the relative viability (ChaGo-K-1; first compound 0.08 µM) is reported as 0.547, the relative viability (ChaGo-K-1; first compound 0.253 µM) is reported as 0.579 and the relative viability (ChaGo-K-1; first compound 0.8 µM) is reported as 0.583. The relative viability (ChaGo-K-1; first compound 2.53 µM) was 0.604, the relative viability (EKVX; first compound 0.08 µM) was 0.715 and the relative viability (EKVX; first compound 0.253 µM) was 0.706. The relative viability (EKVX; first compound 0.8 µM) was 0.695, the relative viability (EKVX; first compound 2.53 µM) was 0.77 and the relative viability (EMC-BAC-2; first compound 0.08 µM) was 0.376. The relative viability (EMC-BAC-2; first compound 0.8 µM) was 0.381, the relative viability (EMC-BAC-2; first compound 2.53 µM) was 0.414 and the relative viability (EPLC-272H; first compound 0.08 µM) was 0.328. The relative viability (EPLC-272H; first compound 0.253 µM) was 0.287, the relative viability (EPLC-272H; first compound 0.8 µM) was 0.269 and the relative viability (EPLC-272H; first compound 2.53 µM) was 0.301. The relative viability (HCC-78; first compound 0.08 µM) was 0.358, the relative viability (HCC-78; first compound 0.253 µM) was 0.332 and the relative viability (HCC-78; first compound 0.8 µM) was 0.356. It also gave a relative viability (HCC-78; first compound 2.53 µM) of 0.323, a relative viability (HCC-827; first compound 0.08 µM) of 0.826 and a relative viability (HCC-827; first compound 0.253 µM) of 0.836. For the same compound, the relative viability (HCC-827; first compound 0.8 µM) was 0.754, the relative viability (HCC-827; first compound 2.53 µM) was 0.767 and the relative viability (LCLC-103H; first compound 0.08 µM) was 0.453. The relative viability (LCLC-103H; first compound 0.253 µM) was 0.467, the relative viability (LCLC-103H; first compound 0.8 µM) was 0.451 and the relative viability (LCLC-103H; first compound 2.53 µM) was 0.465. It also gave a relative viability (LK-2; first compound 0.08 µM) of 0.207, a relative viability (LK-2; first compound 0.253 µM) of 0.173 and a relative viability (LK-2; first compound 0.8 µM) of 0.244. The relative viability (LK-2; first compound 2.53 µM) was 0.216, the relative viability (LU99A; first compound 0.08 µM) was 0.32 and the relative viability (LU99A; first compound 0.253 µM) was 0.302. For the same compound, the relative viability (LU99A; first compound 0.8 µM) was 0.274, the relative viability (LU99A; first compound 2.53 µM) was 0.338 and the relative viability (LXF-289; first compound 0.08 µM) was 0.82. It also gave a relative viability (LXF-289; first compound 0.253 µM) of 0.794, a relative viability (LXF-289; first compound 0.8 µM) of 0.871 and a relative viability (LXF-289; first compound 2.53 µM) of 0.839. For the same compound, the relative viability (NCI-H1563; first compound 0.08 µM) was 0.767, the relative viability (NCI-H1563; first compound 0.8 µM) was 0.761 and the relative viability (NCI-H1563; first compound 2.53 µM) was 0.77. For the same compound, the relative viability (NCI-H1666; first compound 0.08 µM) was 0.929, the relative viability (NCI-H1666; first compound 0.253 µM) was 0.751 and the relative viability (NCI-H1666; first compound 0.8 µM) was 0.814. It also gave a relative viability (NCI-H1666; first compound 2.53 µM) of 0.877, a relative viability (NCI-H1975; first compound 0.08 µM) of 0.783 and a relative viability (NCI-H1975; first compound 0.253 µM) of 0.696. The relative viability (NCI-H1975; first compound 0.8 µM) was 0.566, the relative viability (NCI-H1975; first compound 2.53 µM) was 0.661 and the relative viability (NCI-H2126; first compound 0.08 µM) was 0.769. For the same compound, the relative viability (NCI-H2126; first compound 0.253 µM) was 0.718, the relative viability (NCI-H2126; first compound 0.8 µM) was 0.609 and the relative viability (NCI-H2126; first compound 2.53 µM) was 0.684. It also gave a relative viability (NCI-H2342; first compound 0.08 µM) of 0.621, a relative viability (NCI-H2342; first compound 0.253 µM) of 0.559 and a relative viability (NCI-H2342; first compound 0.8 µM) of 0.576. For the same compound, the relative viability (NCI-H2342; first compound 2.53 µM) was 0.758, the relative viability (NCI-H23; first compound 0.08 µM) was 0.63 and the relative viability (NCI-H23; first compound 0.253 µM) was 0.619. For the same compound, the relative viability (NCI-H23; first compound 0.8 µM) was 0.389, the relative viability (NCI-H23; first compound 2.53 µM) was 0.743 and the relative viability (NCI-H2405; first compound 0.08 µM) was 0.694. For the same compound, the relative viability (NCI-H2405; first compound 0.253 µM) was 0.657, the relative viability (NCI-H2405; first compound 0.8 µM) was 0.663 and the relative viability (NCI-H2405; first compound 2.53 µM) was 0.627. For the same compound, the relative viability (NCI-H322M; first compound 0.08 µM) was 0.578, the relative viability (NCI-H322M; first compound 0.253 µM) was 0.508 and the relative viability (NCI-H322M; first compound 0.8 µM) was 0.657. For the same compound, the relative viability (NCI-H322M; first compound 2.53 µM) was 0.6, the relative viability (PC-14; first compound 0.08 µM) was 0.926 and the relative viability (PC-14; first compound 0.253 µM) was 0.651. The relative viability (PC-14; first compound 0.8 µM) was 1.06, the relative viability (PC-14; first compound 2.53 µM) was 0.929 and the relative viability (RERF-LC-KJ; first compound 0.08 µM) was 0.609. For the same compound, the relative viability (RERF-LC-KJ; first compound 0.8 µM) was 0.521, the relative viability (RERF-LC-KJ; first compound 2.53 µM) was 0.646 and the relative viability (SK-LU-1; first compound 0.08 µM) was 0.38. For the same compound, the relative viability (SK-LU-1; first compound 0.253 µM) was 0.31, the relative viability (SK-LU-1; first compound 0.8 µM) was 0.344 and the relative viability (SK-LU-1; first compound 2.53 µM) was 0.325. It also gave a relative viability (SW 1573; first compound 0.08 µM) of 0.651, a relative viability (SW 1573; first compound 0.8 µM) of 0.699 and a relative viability (SW 1573; first compound 2.53 µM) of 0.659. The relative viability (SW 900; first compound 0.08 µM) was 0.623, the relative viability (SW 900; first compound 0.253 µM) was 0.607 and the relative viability (SW 900; first compound 0.8 µM) was 0.528. It also gave a relative viability (SW 900; first compound 2.53 µM) of 0.496.
